Results reported in patent publication US4608373A, “Cephem compounds” (Yamanouchi Pharmaceutical Co., Ltd., priority 1982, dated 1986).
Converted amounts (≈) assume the structure as drawn. Counter-ions that a name gives are not always drawn. Like-named read-outs stand apart in the source and are kept apart here.

Legend:
Type in all cases: cell-based
Staph. aureus ATCC 6538P = assay: Antibacterial activity (MIC), Staph. aureus ATCC 6538P; details: Staphylococcus aureus, ATCC6538P, read-out: MIC (minimum effective inhibitory concentration)
From the text: (§1) Antibacterial activities (minimum effective inhibitory concentrations) of the compounds of formula I are shown in the following table in comparison with those of cefatazidime having the structure [drawing 5] and cefmenoxime having the structure [drawing 6]

Staph. aureus Smith = assay: Antibacterial activity (MIC), Staph. aureus Smith; details: Staphylococcus aureus, read-out: MIC (minimum effective inhibitory concentration)
From the text: as §1

Staph. aureus Terashima = assay: Antibacterial activity (MIC), Staph. aureus Terashima; details: Staphylococcus aureus, read-out: MIC (minimum effective inhibitory concentration)
From the text: as §1

E. coli Ebara = assay: Antibacterial activity (MIC), E. coli Ebara; details: Escherichia coli, read-out: MIC (minimum effective inhibitory concentration)
From the text: as §1

[1] = tested on: Kleb. pneumoniae ATCC 10031; assay: Antibacterial activity (MIC), Kleb. pneumoniae ATCC 10031; details: Klebsiella pneumoniae, ATCC10031, read-out: MIC (minimum effective inhibitory concentration)
From the text: as §1

Proteus morgani IID 602 = assay: Antibacterial activity (MIC), Proteus morgani IID 602; details: read-out: MIC (minimum effective inhibitory concentration)
From the text: as §1

Serr. marcescens IID 620 = assay: Antibacterial activity (MIC), Serr. marcescens IID 620; details: Serratia marcescens
From the text: as §1

[2] = tested on: Ent. aerogenes ATCC 13048 (MS-1); assay: Antibacterial activity (MIC), Ent. aerogenes ATCC 13048 (MS-1); details: Klebsiella aerogenes, ATCC13048, read-out: MIC (minimum effective inhibitory concentration)
From the text: as §1

Ent. cloacae V-8 = assay: Antibacterial activity (MIC), Ent. cloacae V-8; details: Enterobacter cloacae, V8, read-out: MIC (minimum effective inhibitory concentration)
From the text: as §1

[3] = tested on: Ps. aeruginosa NCTC 10490; assay: Antibacterial activity (MIC), Ps. aeruginosa NCTC 10490; details: Pseudomonas aeruginosa, NCTC10490, read-out: MIC (minimum effective inhibitory concentration)
From the text: as §1

Ps. aeruginosa IID 5142 = assay: Antibacterial activity (MIC), Ps. aeruginosa IID 5142; details: Pseudomonas aeruginosa, IID5142, read-out: MIC (minimum effective inhibitory concentration)
From the text: as §1

[4] = IID620, Serr. marcescens IID 620, read-out: MIC (minimum effective inhibitory concentration)

Compound	MIC (Staph. aureus ATCC 6538P) [µg/mL]	MIC (Staph. aureus Smith) [µg/mL]	MIC (Staph. aureus Terashima) [µg/mL]	MIC (E. coli Ebara; E. coli Ebara) [µg/mL]	MIC [1] [µg/mL]	MIC (Proteus morgani IID 602; Proteus morgani IID 602) [µg/mL]	MIC (Serr. marcescens IID 620; [4]) [µg/mL]	MIC [2] [µg/mL]	MIC (Ent. cloacae V-8) [µg/mL]	MIC [3] [µg/mL]	MIC (Ps. aeruginosa IID 5142) [µg/mL]	MIC (E. coli Ebara) [µg/mL]	MIC (Proteus morgani IID 602) [µg/mL]	MIC (Serr. marcescens IID 620; IID620, read-out: MIC (minimum effective inhibitory concentration)) [µg/mL]
Cn1nc(O)c(=O)nc1SCC1=C(C(=O)O)N2C(=O)C(NC(=O)/C(=N\OCc3csc(N)n3)c3csc(N)n3)[C@H]2SC1 (stereo partly drawn) [Example 5, (Z)-7-{α-(2-amino-4-thiazolyl)-α-[(2-amino-4-thiazolyl)methoxyimino]acetamido}-3-{[(2,5-dihydro-6-hydroxy-2-methyl-5-oxo-as-triazine-3-yl)thio]methyl}-3-cephem-4-carboxylic acid]	3.13 (≈ 4.8 µM)	3.13 (≈ 4.8 µM)	12.5 (≈ 19.2 µM)	≤ 0.2	≤ 0.2	0.39 (≈ 0.597 µM)	0.78 (≈ 1.19 µM)	1.56 (≈ 2.39 µM)	1.56 (≈ 2.39 µM)	1.56 (≈ 2.39 µM)	12.5 (≈ 19.2 µM)			
Nc1nc(CO/N=C(\C(=O)NC2C(=O)N3C(C(=O)[O-])=C(C[n+]4cccc(CNC=O)c4)CS[C@H]23)c2csc(N)n2)cs1 (stereo partly drawn) [Example 22, (Z)-7-{α-(2-amino-4-thiazolyl)-α-[(2-amino-4-thiazolyl)methoxyimino]acetamido}-3-(3-formamidomethyl-1-pyridiniomethyl)-3-cephem-4-carboxylate]	1.56 (≈ 2.48 µM)	1.56 (≈ 2.48 µM)	3.13 (≈ 4.97 µM)	1.56 (≈ 2.48 µM)	≤ 0.2	1.56 (≈ 2.48 µM)	0.78 (≈ 1.24 µM)	3.13 (≈ 4.97 µM)	6.25 (≈ 9.93 µM)	1.56 (≈ 2.48 µM)	12.5 (≈ 19.9 µM)			
Nc1nc(CO/N=C(\C(=O)NC2C(=O)N3C(C(=O)[O-])=C(C[n+]4ccc(CO)cc4)CS[C@H]23)c2csc(N)n2)cs1 (stereo partly drawn) [Example 15, (Z)-7-{α-(2-amino-4-thiazolyl)-α-[(2-amino-4-thiazolyl)methoxyimino]acetamido}-3-(4-hydroxymethyl-1-pyridiniomethyl)-3-cephem-4-carboxylate]	1.56 (≈ 2.59 µM)	1.56 (≈ 2.59 µM)	1.56 (≈ 2.59 µM)	≤ 0.2	≤ 0.2	1.56 (≈ 2.59 µM)	≤ 0.2	1.56 (≈ 2.59 µM)	3.13 (≈ 5.19 µM)	≤ 0.2	6.25 (≈ 10.4 µM)			
Nc1nc(CO/N=C(\C(=O)NC2C(=O)N3C(C(=O)[O-])=C(C[n+]4cccc(CC(=O)O)c4)CSC23)c2csc(N)n2)cs1 (stereo not drawn) [Example 12, (Z)-7-{α-(2-amino-4-thiazolyl)-α-[(2-amino-4-thiazolyl)methoxyimino]acetamido}-3-(3-carboxylatemethyl-1-pyridiniomethyl)-3-cephem-4-carboxylate mono-sodium salt]	3.13	3.13	6.25	1.56	≤ 0.2	0.78	≤ 0.2	1.56	3.13	1.56	25			
Nc1nc(CO/N=C(\C(=O)NC2C(=O)N3C(C(=O)[O-])=C(C[n+]4ccccc4)CSC23)c2csc(N)n2)cs1 (stereo not drawn) [Example 8, (Z)-7-{α-(2-amino-4-thiazolyl)-α-[(2-amino-4-thiazolyl)methoxyimino]acetamido}-3-(1-pyridiniummethyl)-3-cephem-4-carboxylate]	1.56 (≈ 2.72 µM)	0.78 (≈ 1.36 µM)	1.56 (≈ 2.72 µM)	0.78 (≈ 1.36 µM)	≤ 0.2	0.78 (≈ 1.36 µM)	0.78 (≈ 1.36 µM)	1.56 (≈ 2.72 µM)	6.25 (≈ 10.9 µM)	≤ 0.2	3.13 (≈ 5.47 µM)			
Nc1cc[n+](CC2=C(C(=O)[O-])N3C(=O)C(NC(=O)/C(=N\OCc4csc(N)n4)c4csc(N)n4)[C@H]3SC2)cc1 (stereo partly drawn) [Example 21, 7-{α-(2-amino-4-thiazolyl)-α-[(2-amino-4-thiazolyl)methoxyimino]acetamido}-3-(4-amino-1-pyridiniomethyl)-3-cephem-4-carboxylate]	0.39 (≈ 0.664 µM)	0.39 (≈ 0.664 µM)	0.39 (≈ 0.664 µM)	≤ 0.2	≤ 0.2	0.39 (≈ 0.664 µM)	≤ 0.2	0.78 (≈ 1.33 µM)	1.56 (≈ 2.65 µM)	0.39 (≈ 0.664 µM)	6.25 (≈ 10.6 µM)			
Nc1nc(CO/N=C(\C(=O)NC2C(=O)N3C(C(=O)[O-])=C(C[n+]4cccc(C(=O)O)c4)CSC23)c2csc(N)n2)cs1 (stereo not drawn) [Example 13, (Z)-7-{α-(2-amino-4-thiazolyl)-α-[(2-amino-4-thiazolyl)methoxyimino]acetamido}-3-(3-carboxylate-1-pyridiniomethyl)-3-cephem-4-carboxylatemono-sodium salt]	3.13	3.13	6.25	3.13	≤ 0.2	1.56	≤ 0.2	3.13	3.13	1.56	25			
Nc1nc(CO/N=C(\C(=O)NC2C(=O)N3C(C(=O)[O-])=C(C[n+]4cccc(O)c4)CS[C@H]23)c2csc(N)n2)cs1 (stereo partly drawn) [Example 16, (Z)-7-{α-(2-amino-4-thiazolyl)-α-[(2-amino-4-thiazolyl)methoxyimino]acetamido}-3-(3-hydroxy-1-pyridiniomethyl]-3-cephem-4-carboxylate]	3.13 (≈ 5.32 µM)	6.25 (≈ 10.6 µM)	6.25 (≈ 10.6 µM)	1.56 (≈ 2.65 µM)	≤ 0.2	0.78 (≈ 1.33 µM)	0.39 (≈ 0.663 µM)	3.13 (≈ 5.32 µM)	6.25 (≈ 10.6 µM)	1.56 (≈ 2.65 µM)	25 (≈ 42.5 µM)			
CC(C)(O/N=C(\C(=O)N[C@@H]1C(=O)N2C(C(=O)[O-])=C(C[n+]3ccccc3)CS[C@H]12)c1csc(N)n1)C(=O)O [CD, Ceftazidime, reference compound]	6.25 (≈ 11.4 µM)	6.25 (≈ 11.4 µM)	12.5 (≈ 22.9 µM)		≤ 0.2			0.39 (≈ 0.714 µM)	1.56 (≈ 2.85 µM)	0.78 (≈ 1.43 µM)	1.56 (≈ 2.85 µM)	≤ 0.2	≤ 0.2	≤ 0.2
Nc1nc(CO/N=C(\C(=O)NC2C(=O)N3C(C(=O)[O-])=C(C[n+]4cccc(NC=O)c4)CS[C@H]23)c2csc(N)n2)cs1 (stereo partly drawn) [Example 18, (Z)-7-{α-(2-amino-4-thiazolyl)-α-[(2-amino-4-thiazolyl)methoxyimino]acetamido}-3-(3-formamido-1-pyridiniomethyl)-3-cephem-4-carboxylate]	0.78 (≈ 1.27 µM)	0.78 (≈ 1.27 µM)	1.56 (≈ 2.53 µM)	0.78 (≈ 1.27 µM)	≤ 0.2	0.78 (≈ 1.27 µM)	0.39 (≈ 0.633 µM)	1.56 (≈ 2.53 µM)	3.13 (≈ 5.08 µM)	0.39 (≈ 0.633 µM)	6.25 (≈ 10.2 µM)			
Cn1nnnc1SCC1=C(C(=O)O)N2C(=O)C(NC(=O)/C(=N\OCc3csc(N)n3)c3csc(N)n3)C2SC1 (stereo not drawn) [Example 6]	0.78 (≈ 1.28 µM)	0.78 (≈ 1.28 µM)	1.56 (≈ 2.56 µM)	≤ 0.2	≤ 0.2	0.39 (≈ 0.64 µM)	0.39 (≈ 0.64 µM)	1.56 (≈ 2.56 µM)	1.56 (≈ 2.56 µM)	≤ 0.2	12.5 (≈ 20.5 µM)			
Nc1ccc[n+](CC2=C(C(=O)[O-])N3C(=O)C(NC(=O)/C(=N\OCc4csc(N)n4)c4csc(N)n4)[C@H]3SC2)c1 (stereo partly drawn) [Example 19, (Z)-7-{α-(2-amino-4-thiazolyl)-α-[(2-amino-4-thiazolyl)methoxyimino]acetamido}-3-(3-amino-1-pyridiniomethyl)-3-cephem-4-carboxylate]	0.78 (≈ 1.33 µM)	0.78 (≈ 1.33 µM)	0.78 (≈ 1.33 µM)	0.39 (≈ 0.664 µM)	≤ 0.2	0.78 (≈ 1.33 µM)	≤ 0.2	1.56 (≈ 2.65 µM)	3.13 (≈ 5.33 µM)	0.78 (≈ 1.33 µM)	6.25 (≈ 10.6 µM)			
CO/N=C(\C(=O)N[C@@H]1C(=O)N2C(C(=O)O)=C(CSc3nnnn3C)CS[C@H]12)c1csc(N)n1 [CX, Cefmenoxime, reference compound]	3.13 (≈ 6.12 µM)	6.25 (≈ 12.2 µM)	12.5 (≈ 24.4 µM)	0.2 (≈ 0.391 µM)	≤ 0.2	≤ 0.2	0.2 (≈ 0.391 µM)		3.13 (≈ 6.12 µM)	1.56 (≈ 3.05 µM)	100 (≈ 195 µM)			
CC1=C(C(=O)O)N2C(=O)C(NC(=O)/C(=N\OCc3csc(N)n3)c3csc(N)n3)[C@H]2SC1 (stereo partly drawn) [1(b), (Z)-7-{α-(2-amino-4-thiazolyl)-α-[(2-amino-4-thiazolyl)methoxyimino]acetamido}-3-methyl-3-cephem-4-carboxylic acid]	3.13 (≈ 6.32 µM)	6.25 (≈ 12.6 µM)	12.5 (≈ 25.2 µM)	1.56 (≈ 3.15 µM)	≤ 0.2	3.13 (≈ 6.32 µM)	1.56 (≈ 3.15 µM)	6.25 (≈ 12.6 µM)	6.25 (≈ 12.6 µM)	6.25 (≈ 12.6 µM)				
CSC1=C(C(=O)O)N2C(=O)C(NC(=O)/C(=N\OCc3csc(N)n3)c3csc(N)n3)[C@H]2SC1 (stereo partly drawn) [3(b), (Z)-7-{α-(2-amino-4-thiazolyl)-α-[(2-amino-4-thiazolyl)methoxyimino]acetamido}-3-methylthio-3-cephem-4-carboxylic acid]	0.78 (≈ 1.48 µM)	0.78 (≈ 1.48 µM)	1.56 (≈ 2.96 µM)	3.13 (≈ 5.93 µM)	≤ 0.2	1.56 (≈ 2.96 µM)	1.56 (≈ 2.96 µM)	6.25 (≈ 11.8 µM)	3.13 (≈ 5.93 µM)	1.56 (≈ 2.96 µM)				
